± gives the expanded uncertainty stated by the source.
Test: xn = mol fraction of the nth substance listed
Settings: Liquid, Pycnometric method

CCCCBr [1-bromobutane] + O=C=O
Settings	mass density [kg/m3]
317.9 K, 12010 kPa, x1 = 0.0989	916 ± 4
317.9 K, 12060 kPa, x1 = 0.1495	1014 ± 4
317.9 K, 12520 kPa, x1 = 0.1495	1018 ± 4
317.9 K, 12610 kPa, x1 = 0.0989	923 ± 4
317.9 K, 12970 kPa, x1 = 0.1495	1022 ± 4
317.9 K, 13250 kPa, x1 = 0.0989	930 ± 4
317.9 K, 13430 kPa, x1 = 0.1495	1026 ± 4
317.9 K, 13860 kPa, x1 = 0.1495	1029 ± 4
317.9 K, 13890 kPa, x1 = 0.0989	937 ± 4
317.9 K, 14380 kPa, x1 = 0.1495	1033 ± 4
317.9 K, 14630 kPa, x1 = 0.0989	944 ± 4
317.9 K, 14800 kPa, x1 = 0.1495	1036 ± 4
317.9 K, 14980 kPa, x1 = 0.0989	947 ± 4
317.9 K, 15020 kPa, x1 = 0.1495	1038 ± 4
322.7 K, 8260 kPa, x1 = 0.1495	946 ± 4
322.7 K, 8470 kPa, x1 = 0.1495	948 ± 4
322.7 K, 8500 kPa, x1 = 0.0989	818 ± 4
322.7 K, 8710 kPa, x1 = 0.1495	952 ± 4
322.7 K, 8720 kPa, x1 = 0.0989	825 ± 4
322.7 K, 8810 kPa, x1 = 0.0683	731 ± 4
322.7 K, 8820 kPa, x1 = 0.0245	422 ± 4
322.7 K, 8840 kPa, x1 = 0.0245	425 ± 4
322.7 K, 8860 kPa, x1 = 0.0461	629 ± 4
322.7 K, 8880 kPa, x1 = 0.0245	432 ± 4
322.7 K, 8880 kPa, x1 = 0.0683	735 ± 4
322.7 K, 8900 kPa, x1 = 0.0461	632 ± 4
322.7 K, 8920 kPa, x1 = 0.0245	439 ± 4
322.7 K, 8920 kPa, x1 = 0.0989	830 ± 4
322.7 K, 8920 kPa, x1 = 0.1495	954 ± 4
322.7 K, 8940 kPa, x1 = 0.0461	639 ± 4
322.7 K, 8960 kPa, x1 = 0.0245	447 ± 4
322.7 K, 8970 kPa, x1 = 0.0683	740 ± 4
322.7 K, 8990 kPa, x1 = 0.0461	647 ± 4
322.7 K, 9000 kPa, x1 = 0.0245	455 ± 4
322.7 K, 9060 kPa, x1 = 0.0461	655 ± 4
322.7 K, 9070 kPa, x1 = 0.0245	465 ± 4
322.7 K, 9070 kPa, x1 = 0.0683	745 ± 4
322.7 K, 9110 kPa, x1 = 0.0245	473 ± 4
322.7 K, 9120 kPa, x1 = 0.0461	662 ± 4
322.7 K, 9160 kPa, x1 = 0.0245	482 ± 4
322.7 K, 9160 kPa, x1 = 0.0683	750 ± 4
322.7 K, 9160 kPa, x1 = 0.0989	836 ± 4
322.7 K, 9160 kPa, x1 = 0.1495	958 ± 4
322.7 K, 9190 kPa, x1 = 0.0461	671 ± 4
322.7 K, 9210 kPa, x1 = 0.0245	491 ± 4
322.7 K, 9250 kPa, x1 = 0.0683	755 ± 4
322.7 K, 9260 kPa, x1 = 0.0245	500 ± 4
322.7 K, 9270 kPa, x1 = 0.0461	679 ± 4
322.7 K, 9320 kPa, x1 = 0.0245	510 ± 4
322.7 K, 9360 kPa, x1 = 0.0683	759 ± 4
322.7 K, 9370 kPa, x1 = 0.0245	520 ± 4
322.7 K, 9380 kPa, x1 = 0.0461	687 ± 4
322.7 K, 9380 kPa, x1 = 0.1495	961 ± 4
322.7 K, 9400 kPa, x1 = 0.0989	841 ± 4
322.7 K, 9430 kPa, x1 = 0.0245	531 ± 4
322.7 K, 9480 kPa, x1 = 0.0461	696 ± 4
322.7 K, 9480 kPa, x1 = 0.0683	765 ± 4
322.7 K, 9500 kPa, x1 = 0.0245	542 ± 4
322.7 K, 9570 kPa, x1 = 0.0245	553 ± 4
322.7 K, 9600 kPa, x1 = 0.0683	770 ± 4
322.7 K, 9610 kPa, x1 = 0.0461	705 ± 4
322.7 K, 9650 kPa, x1 = 0.0989	847 ± 4
322.7 K, 9660 kPa, x1 = 0.0245	565 ± 4
322.7 K, 9670 kPa, x1 = 0.1495	964 ± 4
322.7 K, 9730 kPa, x1 = 0.0683	775 ± 4
322.7 K, 9750 kPa, x1 = 0.0245	576 ± 4
322.7 K, 9810 kPa, x1 = 0.0461	718 ± 4
322.7 K, 9850 kPa, x1 = 0.0245	590 ± 4
322.7 K, 9870 kPa, x1 = 0.0683	780 ± 4
322.7 K, 9910 kPa, x1 = 0.1495	968 ± 4
322.7 K, 9930 kPa, x1 = 0.0245	599 ± 4
322.7 K, 9930 kPa, x1 = 0.0989	853 ± 4
322.7 K, 9990 kPa, x1 = 0.0245	606 ± 4
322.7 K, 10000 kPa, x1 = 0.0245	608 ± 4
322.7 K, 10050 kPa, x1 = 0.0683	786 ± 4
322.7 K, 10090 kPa, x1 = 0.0461	733 ± 4
322.7 K, 10160 kPa, x1 = 0.1495	971 ± 4
322.7 K, 10230 kPa, x1 = 0.0683	791 ± 4
322.7 K, 10240 kPa, x1 = 0.0989	859 ± 4
322.7 K, 10420 kPa, x1 = 0.0461	748 ± 4
322.7 K, 10420 kPa, x1 = 0.0683	797 ± 4
322.7 K, 10440 kPa, x1 = 0.1495	974 ± 4
322.7 K, 10550 kPa, x1 = 0.0989	870 ± 4
322.7 K, 10620 kPa, x1 = 0.0683	802 ± 4
322.7 K, 10760 kPa, x1 = 0.1495	977 ± 4
322.7 K, 10820 kPa, x1 = 0.0461	764 ± 4
322.7 K, 10840 kPa, x1 = 0.0683	808 ± 4
322.7 K, 10910 kPa, x1 = 0.0989	872 ± 4
322.7 K, 10980 kPa, x1 = 0.1495	980 ± 4
322.7 K, 11080 kPa, x1 = 0.0683	814 ± 4
322.7 K, 11270 kPa, x1 = 0.0989	877 ± 4
322.7 K, 11290 kPa, x1 = 0.0461	779 ± 4
322.7 K, 11340 kPa, x1 = 0.0683	820 ± 4
322.7 K, 11370 kPa, x1 = 0.1495	984 ± 4

— the NIST ThermoML archive (doi:10.1021/je900387e)
